Several values for one entry are separate records, joined by “and”; a condition that tells them apart may be missing. Equal values may be shown once.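 These data come from cells grown in 96-well plates and exposed to compound for 48 hours at five concentrations. At the GI50, growth is halved.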 Activity calls are given as the source filed them. No stated cut-off is given here; in the data, active = GI50 up to about 1.1 µM and inactive = higher.
Key:
Experiment in all cases: NCI tumour cell line growth inhibition, 48 h
786-0 = system: 786-0
A498 = system: A498
A549 = system: A549
ACHN = system: ACHN
BT-549 = system: BT-549
CAKI-1 = system: CAKI-1
CCRF-CEM = system: CCRF-CEM
COLO 205 = system: COLO 205
DU-145 = system: DU-145
EKVX = system: EKVX
HCC 2998 = system: HCC 2998
HCT-116 = system: HCT-116
HCT-15 = system: HCT-15
HL-60 = system: HL-60
HOP-62 = system: HOP-62
HOP-92 = system: HOP-92
HT-29 = system: HT-29
Hs-578T = system: Hs-578T
IGROV-1 = system: IGROV-1
K562 = system: K562
KM12 = system: KM12
LOX IMVI = system: LOX IMVI
M14 = system: M14
MCF7 = system: MCF7
MDA-MB-231 = system: MDA-MB-231
MDA-MB-435 = system: MDA-MB-435
MDA-N = system: MDA-N
MOLT-4 = system: MOLT-4
Malme-3M = system: Malme-3M
NCI-H226 = system: NCI-H226
NCI-H23 = system: NCI-H23
NCI-H460 = system: NCI-H460
NCI-H522 = system: NCI-H522
NCI/ADR-RES = system: NCI/ADR-RES
OVCAR-3 = system: OVCAR-3
OVCAR-4 = system: OVCAR-4
OVCAR-5 = system: OVCAR-5
OVCAR-8 = system: OVCAR-8
PC-3 = system: PC-3
RPMI-8226 = system: RPMI-8226
RXF 393 = system: RXF 393
SF-268 = system: SF-268
SF-295 = system: SF-295
SF-539 = system: SF-539
SK-MEL-28 = system: SK-MEL-28
SK-MEL-2 = system: SK-MEL-2
SK-MEL-5 = system: SK-MEL-5
SK-OV-3 = system: SK-OV-3
SN12C = system: SN12C
SNB-19 = system: SNB-19
SNB-75 = system: SNB-75
SR = system: SR
SW-620 = system: SW-620
T47D = system: T47D
TK-10 = system: TK-10
U-251 = system: U-251
UACC-257 = system: UACC-257
UACC-62 = system: UACC-62
UO-31 = system: UO-31
DLD-1 = system: DLD-1
DMS-114 = system: DMS-114
KM-20L2 = system: KM-20L2
LXFL 529 = system: LXFL 529
M19-MEL = system: M19-MEL
SNB-78 = system: SNB-78
DMS-273 = system: DMS-273

Measured: GI50

C[C@H]1C=C2[C@@H]3CC(C)(C(=O)O)CC[C@]3(C)CC[C@]2(C)[C@]2(C)CC[C@H]3C(C)(C)[C@@H](OC(=O)c4cccc5c(=O)c6ccccc6[nH]c45)CC[C@]3(C)[C@@H]12 (some centres not stated)
> 100 µM: HCT-15
inactive: 786-0 > 100 µM | A498 79.1 µM | A549 57.5 µM | ACHN 67.3 µM | BT-549 47.8 µM | CAKI-1 > 100 µM | CCRF-CEM 38 µM | COLO 205 58.1 µM | DU-145 67.5 µM | EKVX > 100 µM | HCC 2998 88.7 µM | HCT-116 89.7 µM | HL-60 38.4 µM | HOP-62 > 100 µM | HOP-92 > 100 µM | HT-29 > 100 µM | Hs-578T > 100 µM | IGROV-1 > 100 µM | K562 54.5 µM | KM12 37.2 µM | LOX IMVI 57 µM | M14 61 µM | MCF7 40 µM | MDA-MB-231 > 100 µM | MDA-MB-435 41.8 µM | MDA-N 59.8 µM | MOLT-4 > 100 µM | Malme-3M 66.8 µM | NCI-H226 24 µM | NCI-H23 44.3 µM | NCI-H460 41 µM | NCI-H522 28.8 µM | NCI/ADR-RES 54.6 µM | OVCAR-3 > 100 µM | OVCAR-4 80.4 µM | OVCAR-5 > 100 µM | OVCAR-8 41.7 µM | PC-3 38.2 µM | RPMI-8226 43 µM | RXF 393 > 100 µM | SF-268 > 100 µM | SF-295 > 100 µM | SF-539 > 100 µM | SK-MEL-28 53.3 µM | SK-MEL-2 > 100 µM | SK-MEL-5 34.4 µM | SK-OV-3 > 100 µM | SN12C > 100 µM | SNB-19 > 100 µM | SNB-75 > 100 µM | SR 66.8 µM | SW-620 > 100 µM | T47D 26.9 µM | TK-10 > 100 µM | U-251 81.5 µM | UACC-257 29.7 µM | UACC-62 43.3 µM | UO-31 70 µM

Cc1nc(-n2nc(-c3ccccc3)cc2-c2ccccc2)sc1C(/C=C/c1ccc([N+](=O)[O-])cc1)=N/NC(=O)c1ccncc1
14.7 µM: HCT-15
inactive: 786-0 13.5 µM | A498 49.3 µM | A549 30.3 µM | ACHN 23.6 µM | CCRF-CEM 7.6 µM | COLO 205 21.6 µM | DLD-1 11.6 µM | DMS-114 13.9 µM | EKVX 36.8 µM | HCC 2998 5.82 µM | HCT-116 9.12 µM | HL-60 11 µM | HOP-62 12.8 µM | HOP-92 11.5 µM | HT-29 14.4 µM | IGROV-1 21.1 µM | K562 13.9 µM | KM-20L2 19.4 µM | KM12 4.06 µM | LOX IMVI 14.2 µM | LXFL 529 12.7 µM | M14 20.2 µM | M19-MEL 25.4 µM | MOLT-4 6.89 µM | Malme-3M 21.9 µM | NCI-H226 17.9 µM | NCI-H23 14.8 µM | NCI-H460 40 µM | OVCAR-3 12.6 µM | OVCAR-5 53.1 µM | OVCAR-8 28.9 µM | RPMI-8226 7.16 µM | RXF 393 22.4 µM | SF-268 20 µM | SF-295 29 µM | SF-539 13.1 µM | SK-MEL-28 31.1 µM | SK-MEL-2 17.7 µM | SK-MEL-5 18.1 µM | SK-OV-3 44.8 µM | SN12C 24.2 µM | SNB-19 14 µM | SNB-75 22.9 µM | SNB-78 17.3 µM | SW-620 26.7 µM | TK-10 32.6 µM | U-251 27.7 µM | UACC-257 41.7 µM | UACC-62 19.4 µM | UO-31 11.7 µM

C[C@H](CCc1nc(C#N)c(N)o1)[C@H]1CC[C@H]2[C@@H]3[C@@H](O)CC4C[C@@H](O)CC[C@]4(C)[C@H]3C[C@@H](O)[C@]12C (some centres not stated)
active: CCRF-CEM 0.498 µM
48.3 µM: HCT-15
inactive: 786-0 19.2 µM | A498 39.1 µM | A549 29.4 µM | ACHN 26.4 µM | BT-549 9.86 µM | CAKI-1 30.5 µM | COLO 205 18.2 µM | DU-145 28.1 µM | EKVX 28.3 µM | HCC 2998 19.1 µM | HCT-116 21.4 µM | HL-60 3.62 µM | HOP-62 26.5 µM | HOP-92 22.2 µM | HT-29 20.2 µM | Hs-578T 20.5 µM | IGROV-1 10.2 µM | K562 23.1 µM | KM12 17.7 µM | LOX IMVI 12.1 µM | M14 29 µM | MCF7 33.1 µM | MDA-MB-231 25.6 µM | MDA-MB-435 22 µM | MDA-N 25.9 µM | MOLT-4 15 µM | Malme-3M 7.38 µM | NCI-H226 21.2 µM | NCI-H23 24 µM | NCI-H460 21.9 µM | NCI-H522 4.03 µM | NCI/ADR-RES > 78.9 µM | OVCAR-3 17.7 µM | OVCAR-4 1.99 µM | OVCAR-5 23.3 µM | OVCAR-8 12.9 µM | PC-3 9.95 µM | RPMI-8226 6.75 µM | RXF 393 16 µM | SF-268 20.2 µM | SF-295 22.8 µM | SF-539 17.9 µM | SK-MEL-28 25.6 µM | SK-MEL-2 19.9 µM | SK-MEL-5 18.9 µM | SK-OV-3 37.5 µM | SN12C 20.6 µM | SNB-19 23.9 µM | SNB-75 10.3 µM | SR 17 µM | SW-620 23.5 µM | T47D 27.5 µM | TK-10 24.2 µM | U-251 20.7 µM | UACC-257 19.7 µM | UACC-62 10.7 µM | UO-31 20.6 µM

N#Cc1c(=O)c2cc([N+](=O)[O-])ccc2n2c1[nH]c1ccccc12
7.64 µM: HCT-15
inactive: 786-0 6.75 µM | A498 1.71 µM | A549 7.57 µM | ACHN 9.48 µM | BT-549 9.08 µM | CAKI-1 6.84 µM | CCRF-CEM 5.37 µM | COLO 205 4.99 µM | DU-145 8.05 µM | EKVX 23.1 µM | HCC 2998 7.21 µM | HCT-116 3.37 µM | HL-60 4.81 µM | HOP-62 9.55 µM | HOP-92 2.62 µM | HT-29 8.09 µM | Hs-578T 3.44 µM | IGROV-1 12.5 µM | K562 3.78 µM | KM12 5.85 µM | LOX IMVI 5.24 µM | M14 7.96 µM | MCF7 6.92 µM | MDA-MB-231 4.76 µM | MDA-MB-435 10.3 µM | MDA-N 15 µM | MOLT-4 4.83 µM | Malme-3M 8.89 µM | NCI-H226 4.58 µM | NCI-H23 3.19 µM | NCI-H460 4.99 µM | NCI-H522 2.18 µM | NCI/ADR-RES 3.54 µM | OVCAR-3 3.43 µM | OVCAR-4 3.38 µM | OVCAR-5 6 µM | OVCAR-8 5.27 µM | PC-3 4 µM | RPMI-8226 1.91 µM | RXF 393 3.55 µM | SF-268 8.67 µM | SF-295 4.2 µM | SF-539 17.3 µM | SK-MEL-28 4.48 µM | SK-MEL-2 5.25 µM | SK-MEL-5 13.3 µM | SK-OV-3 5.79 µM | SN12C 9.93 µM | SNB-19 5.41 µM | SNB-75 10.7 µM | SR 10.7 µM | SW-620 8.71 µM | T47D 4.44 µM | TK-10 5.92 µM | U-251 7.71 µM | UACC-257 7.46 µM | UACC-62 4.59 µM | UO-31 4.3 µM

NCCSSC/C=C\CSSCCN
46.9 µM and 34.3 µM: HCT-15
inactive: CAKI-1 33.7 µM and 38.8 µM | CCRF-CEM 5.56 µM | DMS-114 30.8 µM and 20 µM | DMS-273 41.1 µM and 22 µM | HCT-116 40.3 µM and 36.8 µM | HL-60 7.06 µM and 14.1 µM | HOP-92 38 µM and 41.6 µM | HT-29 26.6 µM and 34.6 µM | LXFL 529 23.9 µM and 20.1 µM | M14 17.8 µM and 31.5 µM | M19-MEL 50.9 µM and 29.4 µM | MOLT-4 18.6 µM and 15.5 µM | NCI-H23 29.6 µM and 40.7 µM | NCI-H522 15.7 µM and 15.5 µM | OVCAR-4 18.8 µM and 26.7 µM | OVCAR-8 17.6 µM and 27.2 µM | RPMI-8226 26.2 µM and 21.9 µM | RXF 393 54.1 µM and 35.9 µM | SF-539 29.6 µM and 18.1 µM | SNB-75 34.8 µM and > 53.3 µM | SNB-78 35.2 µM and 28.4 µM | SW-620 16.2 µM and 13.5 µM | U-251 34.4 µM and 20.6 µM
